Test results: paper PMC11271582
pEC50: −log10 of the molar value. Where “and” joins values, the source holds several entries; their conditions need not be identical. Equal entries are not always repeated.

What was measured:
[1] = test system: protein synthesis (RNA translation) in Huh7/Lunet-T7 cells; assay: ribopuromycylation assay; assay type: cell-based, human; conditions: 200 µg/ml
Description: A protocol for the ribopuromycylation method to detect nascent protein synthesis[52] was integrated into the workflow for the determination of VPs formation. In brief, cycloheximide (CHX, 200 µg/ml) was added to cells 30 min before the start of a four-hour treatment with 35 nM JNJ-A07 (or vehicle control) to block de novo protein synthesis. Thereafter, the medium was replaced with DMEMComplete prewarmed to 37 °C, to which puromycin was added at a final concentration of 10 µg/ml. Cells were incubated at 37 °C for 5 minutes and then either fixed for microscopy or lysed for western blot analysis.

DENV NS4B and NS3 = DENV NS4B and NS3 (Dengue virus type 2, UniProt P29990); assay: imaging-based colocalization of click-labeled PAL compounds with DENV proteins (pIRO-D); conditions: 1 µM; pIRO-D WT, Huh7/Lunet-T7 cells
[2] = test system: T1, WT (transient replicon assay, sgDVs-R2A, DENV 2/16681); assay: microbe, parasite or virus in culture; design: species or system Huh7-derived cells (sheet title cut off after 'Hu'); transient DENV-2 replicon assay, inhibition of wild-type replicon replication; conditions: wild-type replicon, replicate
T1 construct: 16681 wild-type subgenomic reporter replicon sgDVs-R2A

Calnexin-HA = target: T2, Calnexin-HA (Homo sapiens, UniProt P27824); assay: photoaffinity labeling and click labeling on agarose beads (specificity control); assay type: binding; conditions: 1 µM, UV 365 nm
T2 construct: expressed in transfected cells
T2 sequence (P27824 21-592): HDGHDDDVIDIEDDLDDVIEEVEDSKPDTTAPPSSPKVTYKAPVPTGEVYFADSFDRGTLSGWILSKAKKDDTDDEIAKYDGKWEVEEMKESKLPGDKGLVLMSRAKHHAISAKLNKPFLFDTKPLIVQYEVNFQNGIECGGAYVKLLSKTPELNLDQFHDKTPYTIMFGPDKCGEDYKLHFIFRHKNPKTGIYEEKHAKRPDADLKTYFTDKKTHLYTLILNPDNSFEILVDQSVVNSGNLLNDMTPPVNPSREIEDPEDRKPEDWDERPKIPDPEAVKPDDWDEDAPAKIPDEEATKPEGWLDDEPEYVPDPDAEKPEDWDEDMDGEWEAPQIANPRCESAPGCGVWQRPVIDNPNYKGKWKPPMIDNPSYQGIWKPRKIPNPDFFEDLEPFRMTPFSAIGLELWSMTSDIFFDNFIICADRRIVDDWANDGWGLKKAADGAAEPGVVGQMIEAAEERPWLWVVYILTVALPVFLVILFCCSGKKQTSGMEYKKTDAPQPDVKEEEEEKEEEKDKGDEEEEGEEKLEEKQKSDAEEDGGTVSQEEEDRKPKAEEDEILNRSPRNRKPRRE

ZIKV NS4B = ZIKV NS4B (Zika virus, UniProt A0A024B7W1); assay: imaging-based colocalization of click-labeled PAL compound with ZIKV NS4B (pIRO-Z); conditions: 1 µM, Huh7/Lunet-T7 cells
YFV = conditions: cited from earlier work
DENV-2/16681 = test system: DENV-2/16681; design: method as in PMID 34671169; conditions: pan-serotype; cited from earlier work
[3] = test system: DENV vesicle packets (VPs) formation; assay: determination of VPs formation (pIRO-D system, TEM) in Huh7/Lunet-T7 cells
DENV NS1-5 polyprotein = DENV NS1-5 polyprotein (Dengue virus type 2, UniProt P29990); assay: polyprotein processing by western blot (pIRO-D system); conditions: 35 nM, regardless of the time of addition
cells = test system: cells; design: method as in Kaptein et al, Nature, 2021; conditions: at used concentrations; ref Kaptein et al, Nature, 2021; cited from earlier work
ZIKV = test system: ZIKV; design: method as in PMID 34671169; conditions: cited from earlier work
DENV-1 or DENV-2 = conditions: non-human primates; cited from earlier work

Chain of DENV NS4B and NS3 (P29990 2244-2491): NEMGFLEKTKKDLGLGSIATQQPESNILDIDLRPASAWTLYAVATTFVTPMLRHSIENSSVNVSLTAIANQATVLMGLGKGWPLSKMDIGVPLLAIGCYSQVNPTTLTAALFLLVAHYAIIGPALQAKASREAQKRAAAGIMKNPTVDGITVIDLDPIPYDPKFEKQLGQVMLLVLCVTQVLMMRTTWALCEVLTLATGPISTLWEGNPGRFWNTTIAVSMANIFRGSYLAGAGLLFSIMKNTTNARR
Chain of ZIKV NS4B (A0A024B7W1 2270-2520): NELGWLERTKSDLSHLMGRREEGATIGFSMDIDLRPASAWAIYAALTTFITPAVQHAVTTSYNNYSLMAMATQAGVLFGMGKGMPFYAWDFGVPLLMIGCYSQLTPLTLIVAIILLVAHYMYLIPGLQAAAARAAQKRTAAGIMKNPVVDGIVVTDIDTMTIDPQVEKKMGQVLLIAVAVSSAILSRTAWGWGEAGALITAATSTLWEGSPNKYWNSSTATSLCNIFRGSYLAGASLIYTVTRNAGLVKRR
Chain of DENV NS1-5 polyprotein (P29990 2244-2491): as the sequence (P29990 2244-2491) above

## C[C@@H]1C[C@@H]([C@H](O)CC2CC(=O)NC(=O)C2)C(=O)[C@@H](C)C1 [CHX, cycloheximide]
[1]
  RNA translation (puromycin incorporation): completely arrested RNA translation

## C#CCCC1(CCn2cc(C(=O)C(Nc3cc(OC)cc(OCCOC)c3)c3ccc(Cl)cc3OC)c3cc(OC(F)(F)F)ccc32)N=N1 (stereo not shown) [Compound A]
DENV NS4B and NS3
  colocalization of labeled PAL compound with NS4B (and NS3), Pearson correlation: high degree of colocalization
[2]; Dengue virus, Experimental series=1
  pEC50: 7.19
[2]; Dengue virus, Experimental series=2
  pEC50: 7.21
[2]; Dengue virus, Experimental series=3
  pEC50: 7.28
[2]; Experimental series=1, inhibitor
  pEC50: 7.24 and 7.28
[2]; Experimental series=2, inhibitor
  pEC50: 7.32 and 7.31
[2]; Experimental series=3, inhibitor
  pEC50: 7.17 and 7.19
Calnexin-HA
  Cy5.5 labeling of HA-tagged Calnexin: No labeling
ZIKV NS4B
  colocalization of labeled compound with ZIKV NS4B: low-level, albeit significant colocalization

## C#CCCC1(CCn2cc(C(=O)C(Nc3cc(OC)cc(OCCOC)c3)c3ccc(Cl)cc3OC)c3cc(OC(F)(F)F)ccc32)N=N1 (stereo not shown) [Compound B]
DENV NS4B and NS3
  colocalization of labeled PAL compound with NS4B (and NS3), Pearson correlation: significantly lower colocalization

## COc1cc(NC(C(=O)N2CCc3ccc(OC(F)(F)F)cc32)c2ccc(Cl)cc2)cc(OCCCC(=O)O)c1 (stereo not shown) [JNJ-A07]
YFV
  antiviral activity against YFV lower compared to an average value for a DENV isolate: about 1000 times
DENV-2/16681
  activity against DENV: nano- to picomolar
[3]; 35 nM
  VPE diameter: no effect on VPE diameter
[3]; 35 nM added early, 4 h after transfection
  VPs in time-of-addition experiment: almost complete loss of VPs
[3]; 35 nM added late, 16 h after transfection
  VPE formation efficiency in time-of-addition experiment: reduced to a much lower degree
[3]; 35 nM with CHX 200 µg/ml, compared to CHX only
  VPE decay with protein synthesis blocked: does not accelerate VPE decay
[3]; 35 nM, NS4B resistance mutants
  VPE efficiency: not affected
DENV NS1-5 polyprotein
  effect on polyprotein processing: no apparent effect on polyprotein processing
cells
  cytotoxicity: not cytotoxic
ZIKV
  antiviral activity against ZIKV: marginal antiviral activity

## COc1cc(N[C@H](C(=O)c2c[nH]c3ccc(OC(F)(F)F)cc23)c2ccc(Cl)cc2OC)cc(S(C)(=O)=O)c1 [Mosnodenvir]
DENV-1 or DENV-2
  efficacy against infection with either DENV-1 or DENV-2: highly effective
